Laboratory results taken from patent US20260224563A1, “CRYSTALLINE FORMS OF 6-(3-((5-CHLORO-2-METHOXYPYRIDINE)-3-SULFONAMIDO)-2,6-DIFLUOROPHENYL)-N-METHYLIMIDAZO[1,5-A]PYRAZINE-1-CARBOXAMIDE AND METHODS FOR USING THE SAME” (HIBERCELL, INC., priority 2023, published 2026).
Counter-ions that a name gives are not always drawn. Like-named read-outs stand apart in the source and are kept apart here.

Columns and labels:
Type in all cases: physicochemical
[1] = Slurry study of potassium salt Form III in organic solvents and water (XRPD); conditions: for Result at 3 days (XRPD): slurry in THF
[2] = as above
Method: A slurry study of Form III of the potassium salt in an array of solvents was conducted at 25° C. and 50° C. Approximately 20 mg of Form III of the potassium salt was suspended in 0.5 mL of a solvent (EtOH, IPA, NBA, MEK, acetone, MTBE, EtOAc, IPAc, heptane, DCM, THE, MeCN, and water) and stirred at 25° C. or 50° C. for seven days. Then, the solid sample was collected by vacuum filtration and was analyzed by XRPD.

[3] = Solubility testing in organic solvents and water (visual, room temperature)
[4] = Mechanical (grinding) and tableting treatment of Form III of the potassium salt (XRPD)
Method: Form III of the potassium salt was ground manually (e.g., using a mortar and pestle) for 5 minutes. The ground sample was then analyzed by XRPD. No change in the crystal form was observed.
Tableting treatment of Form III of the potassium salt was conducted at 35 MPa pressure for 10 seconds using a tablet machine (HY-12, Tianjin Tianguang Optical Instrument Co., Ltd). The resulting solid was analyzed by XRPD. No change in the crystal form was observed after the tableting treatment. However, the crystallinity of Form III of the potassium salt decreased after the pressure test.

[5] = Solubility in simulated biological fluid (FaSSGF and FaSSIF) at 37° C., HPLC; pH of filtrate, XRPD of filter cake; conditions: for times more soluble than the free acid (Form II): 0.5-hour mark; for pH (0 h) / Concentration / pH (24 h) / XRPD (filter cake, crystal form): 37° C.; for Concentration / pH (24 h) / XRPD (filter cake, crystal form): listed as K salt Form III; for pH (24 h): filtrate; for XRPD (filter cake, crystal form): up to 24 hours
Method: (§1) Approximately between 15 mg and 24 mg of sample was suspended in 5 mL or 8 mL of FaSSGF or FaSSIF, respectively. The resulting suspension was shaken at 700 rpm with a QQMSC-100 shaker at 37° C. The suspension was sampled and filtered at certain time intervals, which was achieved by sampling 1000 μL of each suspension which was then filtered and diluted, diluting the resulting filtrate for HPLC analysis to assess solubility. The pH of the filtrate was measured, and the filter cake was analyzed by XRPD.
as §1, with “Approximately” for “Approximately between”, “mg to” for “mg and”, “5” for “5 mL”, “suspension” for “suspension which”, “was” for “was then”
Approximately 15 mg to 24 mg of sample was suspended in 5 or 8 mL of FaSSGF or FaSSIF, respectively. The resulting suspension was shaken at 700 rpm with a QQMSC-100 shaker at 37° C. The suspension was sampled and filtered in certain time interval, which was achieved by sampling 1000 μL of each suspension was filtered and diluted, diluting the resulting filtrate for HPLC analysis to assess solubility. The pH of the filtrate was measured, and the filter cake was analyzed by XRPD.

[6] = Dynamic vapor sorption (DVS); conditions: for DVS weight gain: 25° C., listed as Form III of the potassium salt
Method: Moisture sorption/desorption data was collected on a Vsorp Dynamic Moisture Sorption Analyzer (ProUmid GmbH & Co. KG, Germany). The sample was placed into a tared sample chamber and automatically weighed.
• Equilibrium Condition: 0.01%/40 min • Time between weighing cycles: 10 minutes • Minimum time per climate cycle: 50 minutes • Maximum time per climate cycle: 2.0 hour • Balanced condition: 25° C. at 60% […] for 4 hours • Sample temperature: 25° C. • Adsorption: 70, 80, 90 • Desorption: 80, 70, 60, 50, 40, 30, 20, 10, 0 • Adsorption: 10, 20, 30, 40, 50, 60

For CNC(=O)c1ncn2cc(-c3c(F)ccc(NS(=O)(=O)c4cc(Cl)cnc4OC)c3F)ncc12 [Potassium salt Form III, 6-(3-((5-chloro-2-methoxypyridine)-3-sulfonamido)-2,6-difluorophenyl)-N-methylimidazo[1,5-a]pyrazine-1-carboxamide], the “Result at 3 days (XRPD)” value ([1]; 25° C.) was “Potassium salt Form III”, the “Result at 3 days (XRPD)” value ([1]; 50° C.) was “Potassium salt Form III” and the “Result (XRPD)” value ([1]; slurry in Water, 25° C., 5 days, repeated aqueous slurry experiments) was “Potassium salt Form III (5 days)”. The “Result at 3 days (XRPD)” value ([2]; slurry in Acetone, 25° C.) was “Potassium salt Form III”, the “Result at 7 days (XRPD)” value ([2]; slurry in Acetone, 25° C.) was “Potassium salt Form III” and the “Result at 3 days (XRPD)” value ([2]; slurry in DCM, 25° C.) was “Potassium salt Form III”. For the same molecule, the “Result at 7 days (XRPD)” value ([2]; slurry in DCM, 25° C.) was “Potassium salt Form III”, the “Result at 3 days (XRPD)” value ([2]; slurry in DCM, 50° C.) was “Potassium salt Form III” and the “Result at 7 days (XRPD)” value ([2]; slurry in DCM, 50° C.) was “Potassium salt Form III”. The “Result at 3 days (XRPD)” value ([2]; slurry in EtOAc, 25° C.) was “Potassium salt Form III”, the “Result at 7 days (XRPD)” value ([2]; slurry in EtOAc, 25° C.) was “Potassium salt Form III” and the “Result at 3 days (XRPD)” value ([2]; slurry in EtOAc, 50° C.) was “Potassium salt Form III”. For the same molecule, the “Result at 7 days (XRPD)” value ([2]; slurry in EtOAc, 50° C.) was “Potassium salt Form III”, the “Result at 3 days (XRPD)” value ([2]; slurry in Heptane, 25° C.) was “Potassium salt Form III” and the “Result at 7 days (XRPD)” value ([2]; slurry in Heptane, 25° C.) was “Potassium salt Form III”. The “Result at 3 days (XRPD)” value ([2]; slurry in Heptane, 50° C.) was “Potassium salt Form III”, the “Result at 7 days (XRPD)” value ([2]; slurry in Heptane, 50° C.) was “Potassium salt Form III” and the “Result at 3 days (XRPD)” value ([2]; slurry in IPA, 25° C.) was “Potassium salt Form III”. For the same molecule, the “Result at 7 days (XRPD)” value ([2]; slurry in IPA, 25° C.) was “Potassium salt Form III”, the “Result at 3 days (XRPD)” value ([2]; slurry in IPA, 50° C.) was “Potassium salt Form I” and the “Result at 7 days (XRPD)” value ([2]; slurry in IPA, 50° C.) was “Potassium salt Form I”. The “Result at 3 days (XRPD)” value ([2]; slurry in IPAc, 25° C.) was “Potassium salt Form III”, the “Result at 7 days (XRPD)” value ([2]; slurry in IPAc, 25° C.) was “Potassium salt Form III” and the “Result at 3 days (XRPD)” value ([2]; slurry in IPAc, 50° C.) was “Potassium salt Form III”. For the same molecule, the “Result at 7 days (XRPD)” value ([2]; slurry in IPAc, 50° C.) was “Potassium salt Form III”, the “Result at 3 days (XRPD)” value ([2]; slurry in MEK, 25° C.) was “Potassium salt Form III” and the “Result at 7 days (XRPD)” value ([2]; slurry in MEK, 25° C.) was “Potassium salt Form III”. For the same molecule, the “Result at 3 days (XRPD)” value ([2]; slurry in MEK, 50° C.) was “Potassium salt Form III”, the “Result at 7 days (XRPD)” value ([2]; slurry in MEK, 50° C.) was “Potassium salt Form III” and the “Result at 3 days (XRPD)” value ([2]; slurry in MTBE, 25° C.) was “Potassium salt Form III”. The “Result at 7 days (XRPD)” value ([2]; slurry in MTBE, 25° C.) was “Potassium salt Form III”, the “Result at 3 days (XRPD)” value ([2]; slurry in MTBE, 50° C.) was “Potassium salt Form III” and the “Result at 7 days (XRPD)” value ([2]; slurry in MTBE, 50° C.) was “Potassium salt Form III”. The “Result at 3 days (XRPD)” value ([2]; slurry in MeCN, 25° C.) was “Potassium salt Form III”, the “Result at 7 days (XRPD)” value ([2]; slurry in MeCN, 25° C.) was “Potassium salt Form III” and the “Result at 3 days (XRPD)” value ([2]; slurry in MeCN, 50° C.) was “Potassium salt Form I”. For the same molecule, the “Result at 7 days (XRPD)” value ([2]; slurry in MeCN, 50° C.) was “Potassium salt Form I”, the “Result at 3 days (XRPD)” value ([2]; slurry in NBA, 25° C.) was “Potassium salt Form III” and the “Result at 7 days (XRPD)” value ([2]; slurry in NBA, 25° C.) was “Potassium salt Form III”. For the same molecule, the “Result at 3 days (XRPD)” value ([2]; slurry in NBA, 50° C.) was “Potassium salt Form III”, the “Result at 7 days (XRPD)” value ([2]; slurry in NBA, 50° C.) was “Potassium salt Form III” and the “Result at 7 days (XRPD)” value ([2]; slurry in THF, 25° C.) was “Potassium salt Form III”. For the same molecule, the “Result at 7 days (XRPD)” value ([2]; slurry in THF, 50° C.) was “Potassium salt Form III”, the Solubility ([3]; Acetone, listed as Form III of the Potassium Salt) was ~500 µg/mL and the Solubility ([3]; BuOH, 24 °C, organic solvent or mixture, thermodynamic from solid, BuOH, read-out: Solubility) was < 100 µg/mL. For the same molecule, the Solubility ([3]; DCM, listed as Form III of the Potassium Salt) was <100 µg/mL, the Solubility ([3]; DMSO, 24 °C, organic solvent or mixture, thermodynamic from solid, DMSO, read-out: Solubility) was > 180000 µg/mL and the Solubility ([3]; DMSO, listed as Form III of the Potassium Salt) was >180000 µg/mL. For the same molecule, the Solubility ([3]; EtOAc, listed as Form III of the Potassium Salt) was <100 µg/mL, the Solubility ([3]; EtOH, listed as Form III of the Potassium Salt) was ~4000 µg/mL and the Solubility ([3]; H2O (water), listed as Form III of the Potassium Salt) was ~1000 µg/mL. For the same molecule, the Solubility ([3]; IPA, listed as Form III of the Potassium Salt) was <100 µg/mL, the Solubility ([3]; IPAc, listed as Form III of the Potassium Salt) was <100 µg/mL and the Solubility ([3]; MEK, listed as Form III of the Potassium Salt) was <100 µg/mL. For the same molecule, the Solubility ([3]; MTBE, 24 °C, organic solvent or mixture, thermodynamic from solid, MTBE, read-out: Solubility) was < 100 µg/mL, the Solubility ([3]; MeCN, listed as Form III of the Potassium Salt) was <100 µg/mL and the Solubility ([3]; MeOH, listed as Form III of the Potassium Salt) was >40000 µg/mL. For the same molecule, the Solubility ([3]; MeOH, listed as Form III of the potassium salt) was > 40000 µg/mL, the Solubility ([3]; THF, listed as Form III of the Potassium Salt) was <100 µg/mL and the Solubility ([3]; heptane, 24 °C, organic solvent or mixture, thermodynamic from solid, Heptane, read-out: Solubility) was < 100 µg/mL. For the same molecule, the Crystallinity ([4]; after tableting treatment at 35 MPa pressure for 10 seconds) was “decreased”, the “Change in the crystal form (XRPD)” value ([4]; ground manually for 5 minutes) was “No change” and the “Change in the crystal form (XRPD)” value ([4]; tableting treatment at 35 MPa pressure for 10 seconds) was “No change”. For the same molecule, the “times more soluble than the free acid (Form II)” value ([5]; FaSSGF) was “about 230 times”, the “pH (0 h)” value ([5]; FaSSGF) was 1.60 and the Concentration ([5]; FaSSGF, 0.5 h) was 46.8 µg/mL. The Concentration ([5]; FaSSGF, 2.0 h) was 4.6 µg/mL, the “pH (24 h)” value ([5]; FaSSGF) was 1.66 and the “XRPD (filter cake, crystal form)” value ([5]; FaSSGF) was “Changed”. The “times more soluble than the free acid (Form II)” value ([5]; FaSSIF) was “about 100 times”, the “pH (0 h)” value ([5]; FaSSIF) was 6.50 and the Concentration ([5]; FaSSIF, 0.25 h) was 155 µg/mL. The Concentration ([5]; FaSSIF, 0.5 h) was 164 µg/mL, the Concentration ([5]; FaSSIF, 0.75 h) was 160 µg/mL and the Concentration ([5]; FaSSIF, 1.0 h) was 155 µg/mL. The Concentration ([5]; FaSSIF, 2.0 h) was 14.5 µg/mL, the “pH (24 h)” value ([5]; FaSSIF) was 6.83 and the “XRPD (filter cake, crystal form)” value ([5]; FaSSIF) was “Changed”. For the same molecule, the DVS weight gain ([6]; 0 to 80% relative humidity) was “around 0.18%”, the DVS weight gain ([6]; 0 to 90% relative humidity) was ~0.23% and the DVS weight gain ([6]; 60 to 80% relative humidity) was “around 0.13%”. The “Hygroscopicity (DVS)” value ([6]; class by weight gain to 80% relative humidity) was “non-hygroscopic (non-hygroscopic may be defined as a <0.2% weight gain to 80% relative humidity)”.
